Source: the NIST ThermoML archive (doi:10.1016/j.jct.2012.06.010)
± gives the expanded uncertainty stated by the source.

Tests used:
[1] = molar heat capacity at constant pressure; settings: 101.33 kPa, Small sample (50 mg) DSC
[2] = Molar enthalpy of transition or fusion; settings: DSC
[3] = DTA

O=C(O)c1cccnc1 [3-carboxylpyridine]
[1]
Settings	molar heat capacity at constant pressure [J/K/mol]
296.01 K, Crystal 2	139.9 ± 12
298.06 K, Crystal 2	141.2 ± 11
303.2 K, Crystal 2	144.2 ± 10
308.34 K, Crystal 2	147 ± 9.4
313.48 K, Crystal 2	149.4 ± 9.4
318.62 K, Crystal 2	152.3 ± 4.5
323.76 K, Crystal 2	154.8 ± 8.7
328.9 K, Crystal 2	156.5 ± 9.7
334.04 K, Crystal 2	158.2 ± 11
339.18 K, Crystal 2	159.8 ± 12
343.24 K, Crystal 2	160.4 ± 12
348.38 K, Crystal 2	163.3 ± 12
353.52 K, Crystal 2	165.9 ± 6.8
358.66 K, Crystal 2	167.9 ± 6.6
363.8 K, Crystal 2	170 ± 6.7
368.94 K, Crystal 2	171.5 ± 6.7
374.08 K, Crystal 2	173.2 ± 8.8
379.22 K, Crystal 2	175.4 ± 8.4
384.37 K, Crystal 2	177.6 ± 8
389.51 K, Crystal 2	179.4 ± 7.6
394.65 K, Crystal 2	181.2 ± 12
399.79 K, Crystal 2	183.5 ± 13
404.93 K, Crystal 2	185.8 ± 13
410.07 K, Crystal 2	189.4 ± 9.8
415.21 K, Crystal 2	194.3 ± 8.3
420.35 K, Crystal 2	198 ± 8.3
425.49 K, Crystal 2	201.7 ± 8.3
430.63 K, Crystal 2	205.3 ± 7.4
435.77 K, Crystal 2	212.1 ± 15
440.91 K, Crystal 2	219.1 ± 13
448.1 K, Crystal 2	231.3 ± 18
449.13 K, Crystal 2	240.6 ± 13
450.16 K, Crystal 2	254.7 ± 12
451.19 K, Crystal 2	273.6 ± 17
452.22 K, Crystal 2	292.5 ± 26
453.24 K, Crystal 2	334.7 ± 38
454.27 K, Crystal 2	418.6 ± 38
455.3 K, Crystal 2	440.3 ± 14
456.33 K, Crystal 1	382.6 ± 41
457.36 K, Crystal 1	326.3 ± 33
458.38 K, Crystal 1	297.2 ± 28
459.41 K, Crystal 1	280.2 ± 22
460.44 K, Crystal 1	263.1 ± 16
461.47 K, Crystal 1	251.7 ± 14
462.5 K, Crystal 1	245.7 ± 15
463.52 K, Crystal 1	239.8 ± 16
464.55 K, Crystal 1	235.7 ± 17
465.58 K, Crystal 1	233.6 ± 18
466.61 K, Crystal 1	231.4 ± 18
467.64 K, Crystal 1	229.5 ± 16
468.66 K, Crystal 1	227.8 ± 11
469.69 K, Crystal 1	226.1 ± 7.9
479.97 K, Crystal 1	231.6 ± 12
482.03 K, Crystal 1	232.2 ± 11
487.17 K, Crystal 1	233.6 ± 8.1
492.31 K, Crystal 1	235.1 ± 8.7
497.45 K, Crystal 1	237.2 ± 9.6
500.53 K, Crystal 1	245.9 ± 14
503.62 K, Crystal 1	254.7 ± 20
504.65 K, Crystal 1	280.5 ± 51
505.67 K, Crystal 1	306.3 ± 83
506.7 K, Crystal 1	422.7 ± 250
507.73 K, Crystal 1	1073.5 ± 1600
508.76 K, Crystal 1	7052.2 ± 11000
510.81 K, Liquid	1773.6
511.84 K, Liquid	309.8 ± 33
512.87 K, Liquid	307.2 ± 22
515.95 K, Liquid	307.4 ± 8.2
518.01 K, Liquid	308.6 ± 8.1
523.15 K, Liquid	311.5 ± 8.4
528.29 K, Liquid	314.4 ± 9.5
531.37 K, Liquid	316.2 ± 11

Settings	Molar enthalpy of transition or fusion, [2] [kcal/mol]	Triple point temperature, [3] [K]
Crystal 1	6.74 ± 0.143	509.91 ± 0.39
Crystal 2	0.215 ± 0.0526	455 ± 0.5
